In patent US20220125903A1, “METHODS FOR IMPROVING THE EFFICACY OF A SURVIVIN THERAPEUTIC IN THE TREATMENT OF TUMORS” (IMMUNOVACCINE TECHNOLOGIES INC., priority 2018, published 2022):
Marks after values point to notes of the source that are not given here.

What was measured:
recurrent ovarian cancer = experiment: Phase 1b study: DPX-Survivac with low dose cyclophosphamide and epacadostat, tumor response by modified RECIST 1.1; format: in vivo, human; settings: for CR (complete response), number of subjects / DCR (CR + PR + SD), disease control rate / DCR (CR + PR + SD), number of subjects / ORR (overall response rate), % of subjects / ORR (overall response rate), number of subjects / PR (partial response), % of subjects / PR (partial response), number of subjects / Partial response, % of subjects / Partial response, subjects/N / Progressive disease, % of subjects / Progressive disease, subjects/N / Stable disease, % of subjects / Stable disease, subjects/N / Tumor regressions, % of subjects / Tumor regressions, subjects/N / PD (progressive disease), % of subjects / PD (progressive disease), subjects/N / PR (partial response), subjects/N: with DPX-Survivac + low dose CPA
survivin = experiment: Cell mediated immunity: survivin-specific T cell response by ELISpot (Phase 1b); format: in vivo, human; settings: with DPX-Survivac + low dose CPA
Procedure: Cell Mediated Immunity was determined by immunogenicity analysis and describe as the percentage of subjects with a positive immune response to one or more epitopes in the T cell activation therapeutic as well as changes in immune cell infiltration to the tumor. For ELISpot, antigen-specific response rate greater than Mean+2SD (typically>64 SFU/106 PBMC) obtained from pre-treatment and/or unstimulated/background cells was considered a positive response. Further, based on the magnitude of ELISpot response following treatment, subjects were classified as low (>64 to <512 SFU/106 PBMC) or high (>512 SFU/106 PBMC) immune responders to treatment or described as having a high and sustained immune response (3 separate time points >512 SFU/106 PBMC).

[1] = all epacadostat doses (N = 15), total target lesion size < 5 cm
[2] = all epacadostat doses (N = 38), total target lesion size ≥ 5 cm
[3] = epacadostat 100 mg (N = 5), sum of target lesion at baseline <5 cm
[4] = epacadostat 100 mg (N = 14), all subjects
[5] = epacadostat 100 mg BID (N = 5), total target lesion size < 5 cm
[6] = epacadostat 100 mg BID (N = 9), total target lesion size ≥ 5 cm
[7] = epacadostat 100 mg and 300 mg, Total (N = 53)
[8] = epacadostat 300 mg (N = 10), sum of target lesion at baseline <5 cm, partially monitored data
[9] = epacadostat 300 mg (N = 39), all subjects, partially monitored data
[10] = epacadostat 300 mg BID (N = 10), total target lesion size < 5 cm
[11] = epacadostat 300 mg BID (N = 29), total target lesion size ≥ 5 cm
[12] = epacadostat Total (N = 15), sum of target lesion at baseline <5 cm

What does the source list for NS(=O)(=O)NCCNc1nonc1/C(=N\c1ccc(F)c(Br)c1)NO [Epacadostat]?
dose related activity of epacadostat (recurrent ovarian cancer; preliminary analysis, 100 mg vs 300 mg combined with DPX-Survivac and low dose CPA): absence of dose related activity; CR (complete response), number of subjects (recurrent ovarian cancer; [1]): 0; DCR (CR + PR + SD), disease control rate (recurrent ovarian cancer; [1]): (66.7%); DCR (CR + PR + SD), number of subjects (recurrent ovarian cancer; [1]): 10; ORR (overall response rate), % of subjects (recurrent ovarian cancer; [1]): (26.7%); ORR (overall response rate), number of subjects (recurrent ovarian cancer; [1]): 4; PR (partial response), % of subjects (recurrent ovarian cancer; [1]): (26.7%); PR (partial response), number of subjects (recurrent ovarian cancer; [1]): 4; CR (complete response), number of subjects (recurrent ovarian cancer; [2]): 0; DCR (CR + PR + SD), disease control rate (recurrent ovarian cancer; [2]): (39.5%); DCR (CR + PR + SD), number of subjects (recurrent ovarian cancer; [2]): 15; ORR (overall response rate), % of subjects (recurrent ovarian cancer; [2]): (2.6%); ORR (overall response rate), number of subjects (recurrent ovarian cancer; [2]): 1; PR (partial response), % of subjects (recurrent ovarian cancer; [2]): (2.6%); PR (partial response), number of subjects (recurrent ovarian cancer; [2]): 1; Partial response, % of subjects (recurrent ovarian cancer; [3]): (60.0%); Partial response, subjects/N (recurrent ovarian cancer; [3]): 3/5; Progressive disease, % of subjects (recurrent ovarian cancer; [3]): (0%); Progressive disease, subjects/N (recurrent ovarian cancer; [3]): 0/5; Stable disease, % of subjects (recurrent ovarian cancer; [3]): (40.0%); Stable disease, subjects/N (recurrent ovarian cancer; [3]): 2/5; Tumor regressions, % of subjects (recurrent ovarian cancer; [3]): (100%); Tumor regressions, subjects/N (recurrent ovarian cancer; [3]): 5/5; PD (progressive disease), % of subjects (recurrent ovarian cancer; [4]): (35.7%); PD (progressive disease), subjects/N (recurrent ovarian cancer; [4]): 5/14; PR (partial response), % of subjects (recurrent ovarian cancer; [4]): (21.4%); PR (partial response), subjects/N (recurrent ovarian cancer; [4]): 3/14; Tumor regressions, % of subjects (recurrent ovarian cancer; [4]): (35.7%); Tumor regressions, subjects/N (recurrent ovarian cancer; [4]): 5/14; CR (complete response), number of subjects (recurrent ovarian cancer; [5]): 0; DCR (CR + PR + SD), disease control rate (recurrent ovarian cancer; [5]): (100%); DCR (CR + PR + SD), number of subjects (recurrent ovarian cancer; [5]): 5; ORR (overall response rate), % of subjects (recurrent ovarian cancer; [5]): (60%); ORR (overall response rate), number of subjects (recurrent ovarian cancer; [5]): 3; PR (partial response), % of subjects (recurrent ovarian cancer; [5]): (60.0%); PR (partial response), number of subjects (recurrent ovarian cancer; [5]): 3; CR (complete response), number of subjects (recurrent ovarian cancer; [6]): 0; DCR (CR + PR + SD), disease control rate (recurrent ovarian cancer; [6]): (33.3%); DCR (CR + PR + SD), number of subjects (recurrent ovarian cancer; [6]): 3; ORR (overall response rate), number of subjects (recurrent ovarian cancer; [6]): 0; PR (partial response), number of subjects (recurrent ovarian cancer; [6]): 0; PD (progressive disease), % of subjects (recurrent ovarian cancer; [7]): (34.0%); PD (progressive disease), subjects/N (recurrent ovarian cancer; [7]): 18/53; PR (partial response), % of subjects (recurrent ovarian cancer; [7]): (9.4%); PR (partial response), subjects/N (recurrent ovarian cancer; [7]): 5/53; Tumor regressions, % of subjects (recurrent ovarian cancer; [7]): (20.1%); Tumor regressions, subjects/N (recurrent ovarian cancer; [7]): 11/53; Partial response, % of subjects (recurrent ovarian cancer; [8]): (10.0%); Partial response, subjects/N (recurrent ovarian cancer; [8]): 1/10; Progressive disease, % of subjects (recurrent ovarian cancer; [8]): (50.0%); Progressive disease, subjects/N (recurrent ovarian cancer; [8]): 5/10; Stable disease, % of subjects (recurrent ovarian cancer; [8]): (40.0%); Stable disease, subjects/N (recurrent ovarian cancer; [8]): 4/10; Tumor regressions, % of subjects (recurrent ovarian cancer; [8]): (30.0%); Tumor regressions, subjects/N (recurrent ovarian cancer; [8]): 3/10; PD (progressive disease), % of subjects (recurrent ovarian cancer; [9]): (33.3%); PD (progressive disease), subjects/N (recurrent ovarian cancer; [9]): 13/39; PR (partial response), % of subjects (recurrent ovarian cancer; [9]): (5.1%); PR (partial response), subjects/N (recurrent ovarian cancer; [9]): 2/39; Tumor regressions, % of subjects (recurrent ovarian cancer; [9]): (15.4%); Tumor regressions, subjects/N (recurrent ovarian cancer; [9]): 6/39; CR (complete response), number of subjects (recurrent ovarian cancer; [10]): 0; DCR (CR + PR + SD), disease control rate (recurrent ovarian cancer; [10]): (50.0%); DCR (CR + PR + SD), number of subjects (recurrent ovarian cancer; [10]): 5; ORR (overall response rate), % of subjects (recurrent ovarian cancer; [10]): (10.0%); ORR (overall response rate), number of subjects (recurrent ovarian cancer; [10]): 1; PR (partial response), % of subjects (recurrent ovarian cancer; [10]): (10.0%); PR (partial response), number of subjects (recurrent ovarian cancer; [10]): 1; CR (complete response), number of subjects (recurrent ovarian cancer; [11]): 0; DCR (CR + PR + SD), disease control rate (recurrent ovarian cancer; [11]): (41.4%); DCR (CR + PR + SD), number of subjects (recurrent ovarian cancer; [11]): 12; ORR (overall response rate), % of subjects (recurrent ovarian cancer; [11]): (3.4%); ORR (overall response rate), number of subjects (recurrent ovarian cancer; [11]): 1; PR (partial response), % of subjects (recurrent ovarian cancer; [11]): (3.4%); PR (partial response), number of subjects (recurrent ovarian cancer; [11]): 1; Partial response, % of subjects (recurrent ovarian cancer; [12]): (26.7%); Partial response, subjects/N (recurrent ovarian cancer; [12]): 4/15; Progressive disease, % of subjects (recurrent ovarian cancer; [12]): (33.3%); Progressive disease, subjects/N (recurrent ovarian cancer; [12]): 5/15; Stable disease, % of subjects (recurrent ovarian cancer; [12]): (33.3%); Stable disease, subjects/N (recurrent ovarian cancer; [12]): 5/15; Tumor regressions, % of subjects (recurrent ovarian cancer; [12]): (53.3%); Tumor regressions, subjects/N (recurrent ovarian cancer; [12]): 8/15; Positive T cell response (survivin), % of subjects (survivin; [3]): (100%); Positive T cell response (survivin), subjects/evaluable (survivin; [3]): 4/4; Positive T cell response (survivin), % of subjects (survivin; [4]): (100%); Positive T cell response (survivin), subjects/evaluable (survivin; [4]): 11/11; Positive T cell response (survivin), % of subjects (survivin; [7]): (81.5%); Positive T cell response (survivin), subjects/evaluable (survivin; [7]): 22/27; Positive T cell response (survivin), % of subjects (survivin; [8]): (25%)^a; Positive T cell response (survivin), subjects/evaluable (survivin; [8]): 1/4; Positive T cell response (survivin), % of subjects (survivin; [9]): (56.3%)^b; Positive T cell response (survivin), subjects/evaluable (survivin; [9]): 9/16
